Experimental data reported in patent US9265773B2, “Tetracyclic heterocycle compounds and methods of use thereof for the treatment of viral diseases” (priority 2011, dated 2016).
pIC50: −log10 of the molar value.

How the values were obtained:
[1] = tested on: HCV replicon genotype 1b; assay: microbe, parasite or virus in culture; format: cell-based; conditions: Hepatitis C virus, 96 h, genotype 1b replicon cells, incubated 96 hours, NS3/4A ELISA readout
[2] = tested on: HCV replicon genotype 1a; assay: microbe, parasite or virus in culture; format: cell-based; conditions: Hepatitis C virus, 96 h, genotype 1a replicon cells, incubated 96 hours, NS3/4A ELISA readout

Row | SMILES | pIC50 [1] | pIC50 [2]
1 | CC(=O)N(C)C(=O)c1c(-c2ccc(F)cc2)oc2cc(N(C)S(C)(=O)=O)c(-c3ccc4c(n3)-c3cc5c(F)cccc5n3CO4)cc12 [Compound 210, N-acetyl-5-(11-fluoro-6H-pyrido[2′,3′:5,6][1,3]oxazino[3,4-a]indol-2-yl)-2-(4-fluorophenyl)-N-methyl-6-(N-methylmethylsulfonamido)benzofuran-3-carboxamide] | 8.38 | 8.68
2 | CNC(=O)c1c(-c2ccc(F)cc2)oc2cc(N(CCN3CCOCC3)S(C)(=O)=O)c(-c3ccc4c(n3)-c3cc5c(F)cccc5n3CO4)cc12 [Compound 211, 5-(11-fluoro-6H-pyrido[2′,3′:5,6][1,3]oxazino[3,4-a]indol-2-yl)-2-(4-fluorophenyl)-N-methyl-6-(N-(2-morpholinoethyl)methylsulfonamido)benzofuran-3-carboxamide] | 7.92 | 8.19
